Test results reported in publication PMC9146500, “New Quinoline–Urea–Benzothiazole Hybrids as Promising Antitubercular Agents: Synthesis, In Vitro Antitubercular Activity, Cytotoxicity Studies, and In Silico ADME Profiling” (Pharmaceuticals, 2022).
Values after ≈ are worked out from the molar mass of the structure shown. Like-named read-outs stand apart in the source and are kept apart here.

Tests used:
[1] = system: Mycobacterium tuberculosis H37Rv pMSp12::GFP; assay: microbe, parasite or virus in culture; assay type: cell-based; conditions: Mycobacterium tuberculosis, 168 h, Mtb H37Rv, protein-rich media, 7 days, read-out: MIC90 7H9/ADC/GLU/Tw 7 Days; for MIC90: H37RV
[2] = system: Mycobacterium tuberculosis H37Rv pMSp12::GFP; assay: microbe, parasite or virus in culture; assay type: cell-based; conditions: Mtb H37Rv
HepG2 cells = assay: MTT cytotoxicity assay; conditions: HepG2, 24 h, MTT; for IC20: concentration at which cells retain 80% viability, extrapolated from the dose–response curve
MTT cytotoxicity assay = conditions: human; for IC20 at 24 h: IC20, HepG2, 24 h, MTT, concentration at which cells retain 80% viability, extrapolated from the dose–response curve
[3] = cited from earlier work
[4] = protein-poor media, 7 days, read-out: MIC90 7H9/CAS/GLU/Tx 7 Days
[5] = Mycobacterium tuberculosis, H37RV, 168 h, protein-poor media, 7 days, read-out: MIC90 7H9/CAS/GLU/Tx 7 Days

Structure (SMILES) | MIC [1] | MIC ([2]; Mycobacterium tuberculosis, 168 h, protein-poor media, 7 days, read-out: MIC90 7H9/CAS/GLU/Tx 7 Days) | MIC90 ([2]; Mycobacterium tuberculosis, H37RV, both media (CAS and ADC) or medium not given, read-out: MIC90) | IC20 (HepG2 cells) | viability at 24 h (MTT cytotoxicity assay) | IC20 at 24 h (MTT cytotoxicity assay) | MIC90 [2, 4] | MIC90 cell viability (HepG2 cells; viability at the compound's MIC90 in the CAS assay, extrapolated from the curve) | clog P [3] | MIC90 [1] | melting point | MIC90 [2, 5]
O=C(NCCNc1ccnc2cc(Cl)ccc12)Nc1nc2ccc(Br)cc2s1 [Compound 6g, 1-(6-Bromobenzo[d]thiazol-2-yl)-3-(2-((7-chloroquinolin-4-yl)amino)ethyl)urea] | 14.9 µM (≈ 7.1 µg/mL) | 8.89 µM (≈ 4.24 µg/mL) | 8.89 to 14.9 µM (≈ 4.24 to 7.1 µg/mL) | 4.26 µM | 48% | 7.47 µM |  |  |  |  |  | 
O=C(NCCCCNc1ccnc2cc(Cl)ccc12)Nc1nc2ccc(Br)cc2s1 [Compound 6p] |  |  |  | 2.13 µM |  |  | 7.812 µM (≈ 3.94 µg/mL) | 56% |  |  |  | 
CC(C)=CCC/C(C)=C/CNCCNC1C2CC3CC(C2)CC1C3 (stereo not shown) [SQ-109] |  |  |  |  |  |  |  |  | 6.82 |  |  | 
O=C(NCCCNc1ccnc2cc(Cl)ccc12)Nc1nc2ccc(Br)cc2s1 [Compound 6m, 1-(6-Bromobenzo[d]thiazol-2-yl)-3-(3-((7-chloroquinolin-4-yl)amino)propyl)urea] |  |  |  |  | 100% | 25.1 µM |  |  |  | 16.9 µM (≈ 8.28 µg/mL) | 254 to 257 °C | 15.9 µM (≈ 7.82 µg/mL)
O=C(NCCCNc1ccnc2cc(Cl)ccc12)Nc1nc2ccc(Cl)cc2s1 [Compound 6j, 1-(6-Chlorobenzo[d]thiazol-2-yl)-3-(3-((7-chloroquinolin-4-yl)amino)propyl)urea] |  |  |  |  | 86% | 26.3 µM | 4.389 µM (≈ 1.96 µg/mL) |  |  | 11.7 µM (≈ 5.24 µg/mL) | 286 to 288 °C | 4.39 µM (≈ 1.96 µg/mL)
O=C(NCCCCCCNc1ccnc2cc(Cl)ccc12)Nc1nc2ccc(Cl)cc2s1 [Compound 6r, 1-(6-Chlorobenzo[d]thiazol-2-yl)-3-(6-((7-chloroquinolin-4-yl)amino)hexyl)urea] |  |  |  |  | 72% | 5.47 µM |  |  |  | 14.6 µM (≈ 7.14 µg/mL) | 239 to 241 °C | 7.6 µM (≈ 3.71 µg/mL)
Cc1ccc2nc(NC(=O)NC(C)CNc3ccnc4cc(Cl)ccc34)sc2c1 (stereo not shown) [Compound 6x, 1-(1-((7-Chloroquinolin-4-yl)amino)propan-2-yl)-3-(6-methylbenzo[d]thiazol-2-yl)urea] |  |  |  |  | 96% | 16.2 µM |  |  |  | 10.3 µM (≈ 4.41 µg/mL) | 229 to 231 °C | 7.22 µM (≈ 3.07 µg/mL)
